Measured values from BindingDB's records for doi:10.7270/Q2B27SRF (Broad Institute, 2010).

Target: Serine/threonine-protein kinase 33 (Homo sapiens, UniProt Q9BYT3)
Experiment: STK33 kinase inhibitors, dose response, biochemical, luminescence, cell-free, retest (AID 2821)

Chain of Serine/threonine-protein kinase 33 (Q9BYT3 whole entry): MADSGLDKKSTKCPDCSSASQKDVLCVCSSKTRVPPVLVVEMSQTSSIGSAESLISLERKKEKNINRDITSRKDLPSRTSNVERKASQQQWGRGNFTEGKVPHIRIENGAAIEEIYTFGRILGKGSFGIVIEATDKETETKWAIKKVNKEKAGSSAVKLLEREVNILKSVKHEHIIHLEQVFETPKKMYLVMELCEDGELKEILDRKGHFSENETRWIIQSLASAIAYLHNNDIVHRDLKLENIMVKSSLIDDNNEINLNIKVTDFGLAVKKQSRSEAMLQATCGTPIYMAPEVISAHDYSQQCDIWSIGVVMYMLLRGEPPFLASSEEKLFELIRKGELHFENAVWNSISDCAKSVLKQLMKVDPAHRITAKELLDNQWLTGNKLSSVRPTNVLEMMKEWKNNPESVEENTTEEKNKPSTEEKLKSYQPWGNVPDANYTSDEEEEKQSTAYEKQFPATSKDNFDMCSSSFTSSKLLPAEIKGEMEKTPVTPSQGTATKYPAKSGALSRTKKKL

Row | SMILES | EC50 [µM]
1 | CNC(=S)Nc1cccc(-c2cnc3ccccc3n2)c1 | > 120
2 | Cc1ccc(C(=O)O/N=C(\N)c2ccccn2)c(Cl)c1 [MLS001206211] | 32.2
3 | O=C1Nc2ccccc2C1C=Nc1ccc2c(c1)OCO2 (configuration not stated) [(3Z)-3-[(1,3-benzodioxol-5-ylamino)methylidene]-1H-indol-2-one] | 11.3
4 | CCOc1cc(/C=C2\SC(N3CCCC(C)C3)=NC2=O)ccc1O (configuration not stated) [(5Z)-5-[(3-ethoxy-4-hydroxyphenyl)methylidene]-2-(3-methylpiperidin-1-yl)-1,3-thiazol-4-one] | > 120
5 | O=C1NC2c3ccccc3C(=O)N2c2c1cnn2-c1ccccc1 (configuration not stated) [MLS000028140] | > 120
6 | CCc1ccc(NC(S)=Nc2ccc3c[nH]nc3c2)cc1 [SMR000261301] | 9.41
7 | N=c1c2c(-c3ccccc3)c(-c3ccccc3)oc2ncn1Cc1ccco1 [SMR000176070] | > 120
8 | COc1ccc(-c2onc3ccc(C(=O)/C=C/N(C)C)cc23)cc1 [(E)-3-(dimethylamino)-1-[3-(4-methoxyphenyl)-2,1-benzoxazol-5-yl]-2-propen-1-one] | 5.29
9 | O=C1/C(=C/c2ccc(O)c(O)c2)Oc2cc(O)ccc21 [MLS000863576] | 9.63
10 | O=C(Nc1ccccc1-c1ccccc1)c1ccc(Br)o1 [5-bromo-N-(2-phenylphenyl)furan-2-carboxamide] | 10.8
11 | C[C@H]1CCCC(=O)CCCC=Cc2cc(O)cc(O)c2C(=O)O1 [(11S)-11-methyl-15,17-bis(oxidanyl)-12-oxabicyclo[12.4.0]octadeca-1(18),2,14,16-tetraene-7,13-dione] | 44.6
12 | CCn1c2ccc(C(C)N=O)cc2c2cc(C(C)N=O)ccc21 (configuration not stated) [N-[1-[9-ethyl-6-(C-methyl-N-oxidanyl-carbonimidoyl)carbazol-3-yl]ethylidene]hydroxylamine] | > 120
